Laboratory results taken from patent US6806230B1, “Pyrimidine derivatives and herbicides containing them” (Kumiai Chemical Industry Co., Ltd., priority 1999, dated 2004).

How the values were obtained:
Assay type in all cases: in vivo
[1] = system: barnyard grass (Eo); assay: Test Example 1: herbicidal effects by flooded paddy field treatment; design: herbicidal effects, Eo (barnyard grass):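 0-5 growth inhibition grade; 5 = over 90%; 4 = 70-90%; 3 = 50-70%; 2 = 30-50%; 1 = 10-30%; 0 = under 10%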; conditions: for herbicidal effects, Eo (barnyard grass): dose 100 g active ingredient per 10 ares, examined on the 21st day after treatment, standards of Table 44; for Herbicidal effect index, Eo: dose 100 gai/10a, examined on 21st day after treatment, index 0-5 per Table 44;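 for Herbicidal effect index, Eo: 0-5 growth inhibition grade; 5 = over 90%; 4 = 70-90%; 3 = 50-70%; 2 = 30-50%; 1 = 10-30%; 0 = under 10%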
Procedure: (§1) In a 100 cm^2 plastic pot, paddy field soil was filled and paddled. Then, seeds of barnyard grass (Eo) and monochoria (Mo) were sown, and water was introduced to a depth of 3 cm. Next day, a wettable powder prepared in accordance with Formulation Example 1 was diluted with water and dropwise applied to the water surface. The dose was 100 g of the active ingredient per 10 ares. Thereafter, cultivation was carried out in a green house, and on the 21st day after the treatment, the herbicidal effects were examined in accordance with the standards as identified in Table 44.

[2] = system: monochoria (Mo); assay: as above; design: herbicidal effects, Mo (monochoria):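 0-5 growth inhibition grade; 5 = over 90%; 4 = 70-90%; 3 = 50-70%; 2 = 30-50%; 1 = 10-30%; 0 = under 10%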; conditions: for herbicidal effects, Mo (monochoria): dose 100 g active ingredient per 10 ares, examined on the 21st day after treatment, standards of Table 44; for Herbicidal effect index, Mo: dose 100 gai/10a, examined on 21st day after treatment, index 0-5 per Table 44;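 for Herbicidal effect index, Mo: 0-5 growth inhibition grade; 5 = over 90%; 4 = 70-90%; 3 = 50-70%; 2 = 30-50%; 1 = 10-30%; 0 = under 10%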
Procedure: as §1

[3] = system: barnyard grass (Ec); assay: Test Example 2: herbicidal effects by upland soil treatment; design: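 0-5 growth inhibition grade; 5 = over 90%; 4 = 70-90%; 3 = 50-70%; 2 = 30-50%; 1 = 10-30%; 0 = under 10%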; conditions: dose 100 g active ingredient per 10 ares, examined on the 21st day after treatment
Procedure: In a 80 cm^2 plastic pot, upland soil was filled, and seeds of barnyard grass (Ec) and green foxtail (Se) were sown and covered with soil. A wettable powder prepared in accordance with Formulation Example 1 was diluted with water and uniformly applied to the soil surface by means of a small size spray at a rate of 100 l per 10 ares, so that the dose of the active ingredient would be 100 g per 10 ares. Thereafter, cultivation was carried out in a green house, and on the 21st day after the treatment, the herbicidal effects were examined in accordance with the standards as identified in Table 44.

Row | SMILES | herbicidal effects, Eo (barnyard grass) [1] | herbicidal effects, Mo (monochoria) [2] | Ec (herbicidal effects, index) [3] | Herbicidal effect index, Eo [1] | Herbicidal effect index, Mo [2]
1 | CCC(C)C(c1cncnc1C(F)(F)F)N(C)C(=O)Cc1ccc(C(F)(F)F)cc1 (mixture of isomers) [1-307] | 5 | 5 | 5 |  | 
2 | CC(NC(=O)N(C)C(c1cncnc1C(F)(F)F)C(C)C)c1ccccc1 (mixture of isomers) [1-535] | 5 | 5 | 5 |  | 
3 | C#CCN(C(=O)C(C)c1ccccc1)C(c1cncnc1CC)C(C)C (mixture of isomers) [1-562] | 5 | 5 | 5 |  | 
4 | COC(OC)c1ncncc1C(C(C)C)N(C)C(=O)C(C)c1ccc(Cl)cc1 (mixture of isomers) [1-625] |  |  | 4 |  | 
5 | CSC(C(=O)N(C)C(c1cncnc1C(F)(F)F)C(C)C)c1ccc(Cl)cc1 (mixture of isomers) [Compound 1-154] | 5 | 5 |  |  | 
6 | CC(C)C(c1cncnc1C(F)(F)F)N(C)C(=O)Oc1ccc(Cl)cc1 (racemic) [1-178] | 5 | 4 |  |  | 
7 | CC(C)C(c1cncnc1C(F)(F)Cl)N(C)C(=O)Oc1ccc(F)cc1 (racemic) [1-184] | 5 | 5 |  |  | 
8 | CC(C)C(c1cncnc1C(F)(F)Cl)N(C)C(=O)Oc1ccc(Cl)cc1 (racemic) [1-185] | 5 | 5 |  |  | 
9 | Cc1ccc(CC(=O)N(C)C(C)c2cncnc2C(C)(C)C)cc1 (racemic) [1-191] | 5 | 5 |  |  | 
10 | CN(C(=O)Cc1ccc(C(F)(F)F)cc1)C(c1cncnc1C(F)(F)F)C(C)(C)C (racemic) [1-305] | 5 | 5 | 5 |  | 
11 | CC(C)c1ncncc1C(C(C)C)N(C)C(=O)Cc1ccc(C(F)(F)F)cc1 (racemic) [1-310] | 5 | 5 | 5 |  | 
12 | CC(C)C(c1cncnc1-c1ccccc1)N(C)C(=O)Cc1ccccc1 (racemic) [1-322] | 5 | 5 |  |  | 
13 | CC(C)C(c1cncnc1-c1ccccc1)N(C)C(=O)Cc1ccc(F)cc1 (racemic) [1-323] | 5 | 5 | 4 |  | 
14 | CC(C)c1ncncc1C(C(C)C)N(C)C(=O)Nc1ccccc1 (racemic) [1-326] |  |  | 4 |  | 
15 | CC(C)c1ncncc1C(C(C)C)N(C)C(=O)N(C)c1ccccc1 (racemic) [1-327] | 5 | 5 | 5 |  | 
16 | CC(C)C(c1cncnc1C(F)(F)F)N(C)C(=O)C(=O)c1ccccc1 (racemic) [1-328] | 5 | 5 | 5 |  | 
17 | CON(C(=O)Cc1ccccc1)C(c1cncnc1C(F)(F)F)C(C)C (racemic) [1-332] |  |  | 5 |  | 
18 | CC(C)C(c1cncnc1C(F)(F)F)N(C)C(=O)C(=O)c1ccc(Cl)cc1 (racemic) [1-335] | 5 | 5 | 5 |  | 
19 | CSCC(c1cncnc1C(F)(F)F)N(C)C(=O)Cc1ccc(F)cc1 (racemic) [1-413] | 5 | 5 |  |  | 
20 | CSCC(c1cncnc1C(F)(F)F)N(C)C(=O)Cc1ccc(Br)cc1 (racemic) [1-415] | 5 | 5 |  |  | 
21 | CSCC(c1cncnc1C(F)(F)F)N(C)C(=O)Cc1cccc(F)c1 (racemic) [1-420] | 5 | 5 |  |  | 
22 | CSCC(c1cncnc1C(F)(F)F)N(C)C(=O)Cc1ccc(C)cc1 (racemic) [1-421] | 5 | 5 |  |  | 
23 | CSCC(c1cncnc1C(F)(F)F)N(C)C(=O)Cc1ccc(Cl)cc1F (racemic) [1-422] | 5 | 5 |  |  | 

Row | SMILES | herbicidal effects, Eo (barnyard grass) [1] | herbicidal effects, Mo (monochoria) [2] | Ec (herbicidal effects, index) [3] | Herbicidal effect index, Eo [1] | Herbicidal effect index, Mo [2]
24 | CON=CC(c1cncnc1C(C)C)N(C)C(=O)OCc1ccccc1 (racemic) [1-466] |  |  | 4 |  | 
25 | CCOC(OCC)c1ncncc1C(C(C)C)N(C)C(=O)Cc1ccc(Cl)cc1 (racemic) [1-469] | 5 | 5 |  |  | 
26 | CON=Cc1ncncc1C(C(C)C)N(C)C(=O)OCc1ccccc1 (racemic) [1-471] |  |  | 5 |  | 
27 | CC(C)C(c1cncnc1C=NO)N(C)C(=O)Cc1ccc(F)cc1 (racemic) [1-501] | 5 | 5 |  |  | 
28 | COC(C)(OC)C(c1cncnc1C(C)C)N(C)C(=O)Cc1ccc(F)cc1 (racemic) [1-510] | 5 | 5 |  |  | 
29 | CC(C)c1ncncc1C(C=NO)N(C)C(=O)OCc1ccccc1 (racemic) [1-531] |  |  | 4 |  | 
30 | C#CCN(C(=O)Cc1ccccc1)C(c1cncnc1CCC)C(C)C (racemic) [1-616] |  |  | 5 |  | 
31 | C#CCN(C(=O)Cc1ccc(Cl)cc1)C(c1cncnc1CCC)C(C)C (racemic) [1-618] |  |  | 5 |  | 
32 | C#CCN(C(=O)Cc1ccc(F)cc1)C(c1cncnc1C(F)(F)F)C(C)(C)C (racemic) [1-620] |  |  | 5 |  | 
33 | C#CCN(C(=O)Cc1ccccc1)C(c1cncnc1C(C)C)C(C)C (racemic) [1-621] |  |  | 5 |  | 
34 | C#CCN(C(=O)Cc1ccc(Cl)cc1)C(c1cncnc1C(C)C)C(C)C (racemic) [1-623] |  |  | 5 |  | 
35 | Cc1ccc(OC(=O)N(C)C(c2cncnc2C(F)(F)Cl)C(C)C)cc1 (racemic) [1-636] |  |  | 4 |  | 
36 | COc1ccc(OC(=O)N(C)C(c2cncnc2C(F)(F)Cl)C(C)C)cc1 (racemic) [1-637] | 5 | 5 |  |  | 
37 | CCc1ncncc1C(CC)N(C)C(=O)Oc1ccc(Cl)cc1 (racemic) [1-646] |  |  | 4 |  | 
38 | CC(C)C(c1cncnc1C(F)(F)F)N(C)C(=O)Cc1ccncc1 (racemic) [2-5] | 5 | 5 |  |  | 
39 | CC(C)C(c1cncnc1C(F)(F)F)N(C)C(=O)Cn1cc(Br)cn1 (racemic) [2-41] | 5 | 5 |  |  | 
40 | CC(C)C(c1cncnc1C(F)(F)F)N(C)C(=O)COc1nnc(C(F)(F)F)s1 (racemic) [2-47] |  |  | 4 |  | 
41 | CC(C)C(c1cncnc1C(F)(F)Cl)N(C)C(=O)Oc1cccc2ccccc12 (racemic) [2-80] | 5 | 4 |  |  | 
42 | CC(C)C(c1cncnc1C(F)(F)Cl)N(C)C(=O)Oc1ccccc1 (racemic) [Compound 1-19] |  |  |  | 5 | 5
43 | CN(C(=O)Cc1ccc(Cl)cc1)C(c1cncnc1C(F)(F)Cl)C1CC1 (racemic) [Compound 1-94] |  |  |  | 5 | 5
44 | CN(C(=O)Cc1ccccc1F)C(c1cncnc1C(F)(F)F)C1CCCC1 (racemic) [Compound 1-156] | 5 | 5 |  |  | 
45 | CCOC(=O)c1ncncc1C(C(C)C)N(C)C(=O)C(C)c1ccc(Cl)cc1 (single isomer, unassigned) [1-595] | 5 | 5 |  |  | 
46 | CC(C)C(c1cncnc1C=O)N(C)C(=O)Cc1ccc(F)cc1 (centres unmarked) [Compound 1-523, N-[1-(4-formylpyrimidin-5-yl)-2-methylpropyl]-N-methyl-4-fluorophenylacetamide] |  |  | 4 |  | 
